From patent US7704995B2 (Exelixis, Inc., priority 2003, dated 2010)

biological target: T1, Chk1 (Homo sapiens, UniProt O14757); assay: Chk1 kinase assay: incorporation of γ-33P ATP into immobilized myelin basic protein; type: biochemical; settings: Table 11, Chk1 only; class symbols A-D; read-out: Chk1 IC50
T1 construct: purchased Upstate Biotechnology
T1 sequence (O14757 1-476): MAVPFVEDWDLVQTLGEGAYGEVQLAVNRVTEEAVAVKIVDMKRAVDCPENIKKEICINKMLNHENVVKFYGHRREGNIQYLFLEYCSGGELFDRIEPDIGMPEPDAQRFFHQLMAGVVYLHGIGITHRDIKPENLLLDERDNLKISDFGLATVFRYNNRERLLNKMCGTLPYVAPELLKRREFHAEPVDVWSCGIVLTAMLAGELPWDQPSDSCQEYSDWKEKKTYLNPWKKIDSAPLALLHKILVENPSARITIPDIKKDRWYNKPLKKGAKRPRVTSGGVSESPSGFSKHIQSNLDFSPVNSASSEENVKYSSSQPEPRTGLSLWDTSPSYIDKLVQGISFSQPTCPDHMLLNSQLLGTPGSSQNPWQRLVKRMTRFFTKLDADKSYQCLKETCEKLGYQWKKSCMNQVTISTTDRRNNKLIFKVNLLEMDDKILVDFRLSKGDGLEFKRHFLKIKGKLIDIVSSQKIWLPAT
In short: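 Radiometric filter-free format: Chk1 10 nM, 10 μM ATP; Chk2 20 nM, 30 μM ATP; γ-33P ATP tracer; immobilized MBP substrate; Hepes pH 7.6, 10 mM MgCl2, 1 mM DTT; 1 h RT; 1% DMSO. Scintillation counting of washed plates. IC50/Ki from curve fit.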

| IC50 [nM] | Structure (SMILES) |
| --- | --- |
| < 50 | Cc1c(Cl)cccc1CNC(=O)c1cccc(-c2cnc(N)c(C(=O)N[C@H]3CCCNC3)n2)c1 [Example 1025, 3-amino-6-[3-({[(3-chloro-2-methylphenyl)methyl]amino}carbonyl)phenyl]-N-[(3S)-piperidin-3-yl]pyrazine-2-carboxamide] |
| < 50 | Nc1ncc(-c2cccc(C(=O)NCc3c(F)ccc(Cl)c3F)c2)nc1C(=O)N[C@H]1CCCNC1 [Example 1000, 3-amino-6-[3-({[(3-chloro-2,6-difluorophenyl)methyl]amino}carbonyl)phenyl]-N-[(3S)-piperidin-3-yl]pyrazine-2-carboxamide] |
| < 50 | Cc1nnsc1C(=O)NCc1cccc(-c2cnc(N)c(C(=O)N[C@H]3CCCNC3)n2)c1 [Example 991, 3-amino-6-[3-({[(4-methyl-1,2,3-thiadiazol-5-yl)carbonyl]amino}methyl)phenyl]-N-[(3S)-piperidin-3-yl]pyrazine-2-carboxamide] |
| < 50 | CN(C)c1ccc(C(=O)Nc2cccc(-c3cnc(N)c(C(=O)N[C@H]4CCCNC4)n3)c2)c2ccccc12 [Example 900, 3-amino-6-[3-({[4-(dimethylamino)naphthalen-1-yl]carbonyl}amino)phenyl]-N-[(3S)-piperidin-3-yl]pyrazine-2-carboxamide] |
| < 50 | Nc1ncc(-c2cccc(C(=O)NCc3ccc(Cl)c(Cl)c3)c2)nc1-c1nc([C@H]2CCCNC2)n[nH]1 [Example 830, 3-(5-amino-6-{3-[(3S)-piperidin-3-yl]-1H-1,2,4-triazol-5-yl}pyrazin-2-yl)-N-[(3,4-dichlorophenyl)methyl]benzamide] |
| < 50 | Nc1ncc(-c2cccc(CN[C@@H]3c4ccccc4C[C@@H]3O)c2)nc1C(=O)N[C@H]1CCCNC1 [Example 968, 3-amino-6-[3-({[(1R,2S)-2-hydroxy-2,3-dihydro-1H-inden-1-yl]amino}methyl)phenyl]-N-[(3S)-piperidin-3-yl]pyrazin-2-carboxamide] |
| < 50 | Nc1ncc(-c2cccc(C(=O)NCc3ccc(Cl)cc3)c2)nc1-c1nnc([C@H]2CCCNC2)[nH]1 [Example 838, 3-(5-amino-6-{5-[(3S)-piperidin-3-yl]-4H-1,2,4-triazol-3-yl}pyrazin-2-yl)-N-[(4-chlorophenyl)methyl]benzamide] |
| 50 to 1000 | Nc1ncc(-c2cccc(C(=O)NCc3c(F)cccc3Cl)c2)nc1-c1nc([C@H]2CCCNC2)n[nH]1 [Example 828, 3-(5-amino-6-{3-[(3S)-piperidin-3-yl]-1H-1,2,4-triazol-5-yl}pyrazin-2-yl)-N-[(2-chloro-6-fluorophenyl)methyl]benzamide] |
| < 50 | CN(C)c1ccc(CNC(=O)c2cccc(-c3cnc(N)c(C(=O)N[C@H]4CCCNC4)n3)c2)cc1 [Example 852, 3-amino-6-{3-[({[4-(dimethylamino)phenyl]methyl}amino)carbonyl]phenyl}-N-[(3S)-piperidin-3-yl]pyrazine-2-carboxamide] |
| < 50 | COc1ccc(CNC(=O)c2cccc(-c3cnc(N)c(C(=O)N[C@H]4CCCNC4)n3)c2)c(OC)c1 [Example 856, 3-amino-6-{3-[({[2,4-bis(methyloxy)phenyl]methyl}amino)carbonyl]phenyl}-N-[(3S)-piperidin-3-yl]pyrazine-2-carboxamide] |

same assay, conditions: Table 11; Chk1 only; read-out: Chk1 IC50

| IC50 [nM] | Structure (SMILES) |
| --- | --- |
| 1000 to 10000 | Nc1ncc(-c2cccc(C(=O)NCc3ccccc3)c2)nc1C(=O)N[C@H]1CCN(C[C@H]2CCCN2)C1 [Example 689, 3-amino-6-(3-{[(phenylmethyl)amino]carbonyl}phenyl)-N-{(3S)-1-[(2R)-pyrrolidin-2-ylmethyl]pyrrolidin-3-yl}pyrazine-2-carboxamide] |
| < 50 | CSc1ccc(CNC(=O)c2cccc(-c3cnc(N)c(C(=O)N[C@H]4CCNC4)n3)c2)cc1 [Example 747, 3-amino-6-{3-[({[4-(methylthio)phenyl]methyl}amino)carbonyl]phenyl}-N-[(3S)-pyrrolidin-3-yl]pyrazine-2-carboxamide] |
| 1000 to 10000 | Nc1ncc(-c2cccc(CO)c2)nc1-c1nnc(Cc2ccccc2)[nH]1 [Example 552, (3-{5-amino-6-[5-(phenylmethyl)-4H-1,2,4-triazol-3-yl]pyrazin-2-yl}phenyl)methanol] |
| ≥ 10000 | Nc1ncc(-c2cccc(C(=O)NCc3ccccc3)c2)nc1C(=O)N1CCCC(C(=O)O)C1 (centres unmarked) [Example 614, 1-{[3-amino-6-(3-{[(phenylmethyl)amino]carbonyl}phenyl)pyrazin-2-yl]carbonyl}piperidine-3-carboxylic] |
| < 50 | Nc1ncc(-c2cccc(CN[C@@H]3CCc4ccccc43)c2)nc1-c1nc(C2CCCNC2)n[nH]1 (stereo partly drawn) [Example 683, 5-(3-{[(1R)-2,3-dihydro-1H-inden-1-ylamino]methyl}phenyl)-3-(3-piperidin-3-yl-1H-1,2,4-triazol-5-yl)pyrazin-2-amine] |
| 1000 to 10000 | Cc1nccc(-c2nc(-c3cccc(C(=O)NCc4ccccc4)c3)cnc2N)n1 [Example 656, 3-[5-amino-6-(2-methylpyrimidin-4-yl)pyrazin-2-yl]-N-(phenylmethyl)benzamide] |
| ≥ 10000 | CC(C)(C)OC(=O)N1CCC(NC(=O)c2nc(-c3cccc(C(=O)NCc4ccccc4)c3)cnc2N)C1 (centres unmarked) [Example 567, 1,1-dimethylethyl 3-({[3-amino-6-(3-{[(phenylmethyl)amino]carbonyl}phenyl)pyrazin-2-yl]carbonyl}amino)pyrrolidine-1-carboxylate] |
| 1000 to 10000 | CN1CCCC(c2n[nH]c(-c3nc(-c4cccc(CO)c4)cnc3N)n2)C1 (centres unmarked) [Example 736, (3-{5-amino-6-[3-(1-methylpiperidin-3-yl)-1H-1,2,4-triazol-5-yl]pyrazin-2-yl}phenyl)methanol] |
| 50 to 1000 | Nc1ncc(-c2cccc(C(=O)NC3COc4ccccc43)c2)nc1C(=O)N[C@H]1CCNC1 (stereo partly drawn) [Example 779, 3-amino-6-{3-[(2,3-dihydro-1-benzofuran-3-ylamino)carbonyl]phenyl}-N-[(3S)-pyrrolidin-3-yl]pyrazine-2-carboxamide] |
| 50 to 1000 | CC(=O)c1nc(-c2cccc(CN[C@H]3CCc4ccccc43)c2)cnc1N [Example 531, 1-[3-amino-6-(3-{[(1S)-2,3-dihydro-1H-inden-1-ylamino]methyl}phenyl)pyrazin-2-yl]ethanone] |

same assay, conditions: read-out: Chk1 IC50

| IC50 [nM] | Structure (SMILES) |
| --- | --- |
| 50 to 1000 | CNC(=O)c1nc(-c2cccc(C(=O)NCc3cc(C(F)(F)F)cc(C(F)(F)F)c3)c2)cnc1N [Example 262, 3-amino-6-{3-[({[3,5-bis(trifluoromethyl)phenyl]methyl}amino)carbonyl]phenyl}-N-methylpyrazine-2-carboxamide] |
| 50 to 1000 | CNC(=O)c1nc(-c2cccc(NCCc3ccccc3)c2)cnc1N [Example 410, 3-amino-N-methyl-6-{3-[(2-phenylethyl)amino]phenyl}pyrazine-2-carboxamide] |
| 50 to 1000 | CNC(=O)c1nc(-c2cccc(C(=O)NCCc3ccc(F)cc3)c2)cnc1N [Example 131, 3-amino-6-[3-({[2-(4-fluorophenyl)ethyl]amino}carbonyl)phenyl]-N-methylpyrazine-2-carboxamide] |
| 50 to 1000 | CNC(=O)c1nc(-c2cccc(C(=O)NCc3cccc(Cl)c3)c2)cnc1N [Example 125, 3-amino-6-[3-({[(3-chlorophenyl)methyl]amino}carbonyl)phenyl]-N-methylpyrazine-2-carboxamide] |
| 50 to 1000 | CNC(=O)c1nc(-c2cccc(C(=O)NCC3CCCC3)c2)cnc1N [Example 253, 3-amino-6-(3-{[(cyclopentylmethyl)amino]carbonyl}phenyl)-N-methylpyrazine-2-carboxamide] |
| 1000 to 10000 | CNC(=O)c1nc(-c2cccc(C(=O)NC3CC3)c2)cnc1N [Example 278, 3-amino-6-{3-[(cyclopropylamino)carbonyl]phenyl}-N-methylpyrazine-2-carboxamide] |
| 1000 to 10000 | CNC(=O)c1nc(-c2cccc(C(=O)NC(C)(C)C)c2)cnc1N [Example 139, 3-amino-6-(3-{[(1,1-dimethylethyl)amino]carbonyl}phenyl)-N-methylpyrazine-2-carboxamide] |
| 50 to 1000 | CNC(=O)c1nc(-c2cccc(NC(=O)OCc3ccccc3)c2)cnc1N [Example 318, phenylmethyl (3-{5-amino-6-[(methylamino)carbonyl]pyrazin-2-yl}phenyl)carbamate] |
| 50 to 1000 | CNC(=O)c1nc(-c2cccc(CNCc3ccc4c(c3)OCCO4)c2)cnc1N [Example 403, 3-amino-6-(3-{[(2,3-dihydro-1,4-benzodioxin-6-ylmethyl)amino]methyl}phenyl)-N-methylpyrazine-2-carboxamide] |
| 50 to 1000 | CNC(=O)c1nc(-c2ccc(Cl)c(C(=O)NCc3ccccc3)c2)cnc1N [Example 240, 3-amino-6-(4-chloro-3-{[(phenylmethyl)amino]carbonyl}phenyl)-N-methylpyrazine-2-carboxamide] |
| 50 to 1000 | CNC(=O)c1nc(-c2cccc(C(=O)N[C@H]3CCCc4ccccc43)c2)cnc1N [Example 161, 3-amino-N-methyl-6-(3-{[(1S)-1,2,3,4-tetrahydronaphthalen-1-ylamino]carbonyl}phenyl)pyrazine-2-carboxamide] |
| 1000 to 10000 | CNC(=O)c1nc(-c2cccc(-c3noc(-c4ccccc4)n3)c2)cnc1N [Example 136, 3-amino-N-methyl-6-[3-(5-phenyl-1,2,4-oxadiazol-3-yl)phenyl]pyrazine-2-carboxamide] |
